In turn, `CSc1cnc2ccccc2n1` yielded a logP of 2.79. With `Clc1cccnc1` the figure was 1.33. For the compound `Cc1cc2nccnc2cc1C`, the lipophilicity (logP) was found to be 2.29. `CS(=O)(=O)c1cnc2ccccc2n1` showed a logP of 0.79.

`COc1ccc2cccnc2c1`: the lipophilicity (logP) stood at 2.37. For `CC(=O)c1ccnc2cc(Cl)ccc12` the value was 2.62. For the compound `O=S(=O)(c1ccccc1)c1ccc2ncccc2c1`, the logP came to 2.57. With `Cc1ccc([N+](=O)[O-])cn1` the figure was 0.99. Turning to `Cc1cnccn1`, the logP was found to be 0.23. For `Cc1cccc2nccnc12` the value was 2.04. With `O=COc1ccccc1` the figure was 1.26; with `Clc1cccc2nccnc12`, 1.75; with `Nc1ccc2nccnc2c1`, 0.9. `Brc1ccc2cccnc2c1` showed a logP of 2.92. Take `Cc1ccc2c(c1)N(O)C=CN2O`: the log partition coefficient (logP) is -0.35. With `O=[N+]([O-])c1ccnc2ccccc12` the figure was 2.06. Turning to `CN(C)c1cccc2cccnc12`, the logP was determined as 2.73. With `CN(C)c1ccc2cccnc2c1` the figure was 2.71; with `O=[N+]([O-])c1cccnc1`, 0.6; with `CCOC(=O)c1cccc2cccnc12`, 1.83. Compound `COC(=O)c1ccncc1` came in with a logP of 0.87.

Consider `CN(C)c1ccncc1`, for which the logP was 1.34.

`Nc1cnccn1`: the log partition coefficient (logP) is -0.07. For `CCOc1ccc2nccnc2c1` the value was 2.22; for `Nc1ccnc2ccccc12`, 1.63. With `CC(=O)c1ccc2ccccc2n1` the figure was 2.54.

For `Nc1cnc2ccccc2n1`, the logP was 1.5. With `COc1ccncc1` the figure was 1; with `Clc1cnc2ccccc2n1`, 2.23.

For the compound `CCC(=O)Nc1ccnc2cc(Cl)ccc12`, the logP was 2.73. For `O=[N+]([O-])c1ccccn1` the value was 0.48; for `CC(=O)c1cccnc1`, 0.43; for `Clc1ccc2ccccc2n1`, 2.71. With `N#Cc1ccncc1` the figure was 0.46; with `Cc1cnc(C)cn1`, 0.63. For `O=[N+]([O-])c1cnc2ccccc2c1` the value was 1.97; for `Cc1cccc2c1ncc[n+]2[O-]`, 1.2. `N#Cc1ccccn1` displayed a logP of 0.5. The compound `Nc1cccc2nccnc12` displayed a lipophilicity (logP) of 1.29. `N#Cc1cccnc1` displayed a logP of 0.36. As to `COc1cnc2ccccc2n1`, the logP was found to be 2.31. For `CC(=O)Nc1cccc2ncccc12` the value was 0.71; for `N#Cc1ccnc2ccccc12`, 1.98. Regarding `CCOC(=O)Oc1cccc2cccnc12`, the logP amounted to 1.73. With `CC(=O)Nc1cnc2ccccc2c1` the figure was 1.92; with `CC(=O)Nc1ccc2ncccc2c1`, 1.55. For `CC(=O)c1ccccn1` the value was 0.83; for `Nc1cnc2ccccc2c1`, 1.63; for `Cc1cc(C#N)ccn1`, 0.81.

With `CC(=O)Nc1cccnc1`, the logP turned out to be 0.41.

As for `N#Cc1ccc2nccnc2c1`, the logP stood at 1.01. Take `Cc1cccc(C#N)n1`: the log partition coefficient (logP) was 0.84.

In turn, `Clc1ccc2nccnc2c1` returned a logP of 2.1. `Cc1cnc2ccccc2n1` showed a logP of 1.61.

For orientation: logP means the decadic logarithm of the partition coefficient of the neutral form, usually between octanol and water. Lower therefore signals a more hydrophilic compound.

(Values after the SangsterLogP compilation.)
